Consider 51 compounds from patent US9944603B2, “Compounds and methods for the treatment of cystic fibrosis” (Flatley Discovery Lab, LLC, priority 2013, dated 2018).

In this experiment the target is T1, human F508del CFTR (Homo sapiens, UniProt P13569, DEL508-508).
T1 construct: expressed in transfected cells
In words: CFTR-YFP Assay, CFTR Corrector Protocol (YFP flux assay). In kind it is cell-based. The note with it: for Emax: normalized to the positive control, read-out: EMAX (% Efficacy, EMAX normalized to the positive control).

Each structure is given as a SMILES string.

T1 sequence (P13569 with tags, fused parts or gaps DEL508-508): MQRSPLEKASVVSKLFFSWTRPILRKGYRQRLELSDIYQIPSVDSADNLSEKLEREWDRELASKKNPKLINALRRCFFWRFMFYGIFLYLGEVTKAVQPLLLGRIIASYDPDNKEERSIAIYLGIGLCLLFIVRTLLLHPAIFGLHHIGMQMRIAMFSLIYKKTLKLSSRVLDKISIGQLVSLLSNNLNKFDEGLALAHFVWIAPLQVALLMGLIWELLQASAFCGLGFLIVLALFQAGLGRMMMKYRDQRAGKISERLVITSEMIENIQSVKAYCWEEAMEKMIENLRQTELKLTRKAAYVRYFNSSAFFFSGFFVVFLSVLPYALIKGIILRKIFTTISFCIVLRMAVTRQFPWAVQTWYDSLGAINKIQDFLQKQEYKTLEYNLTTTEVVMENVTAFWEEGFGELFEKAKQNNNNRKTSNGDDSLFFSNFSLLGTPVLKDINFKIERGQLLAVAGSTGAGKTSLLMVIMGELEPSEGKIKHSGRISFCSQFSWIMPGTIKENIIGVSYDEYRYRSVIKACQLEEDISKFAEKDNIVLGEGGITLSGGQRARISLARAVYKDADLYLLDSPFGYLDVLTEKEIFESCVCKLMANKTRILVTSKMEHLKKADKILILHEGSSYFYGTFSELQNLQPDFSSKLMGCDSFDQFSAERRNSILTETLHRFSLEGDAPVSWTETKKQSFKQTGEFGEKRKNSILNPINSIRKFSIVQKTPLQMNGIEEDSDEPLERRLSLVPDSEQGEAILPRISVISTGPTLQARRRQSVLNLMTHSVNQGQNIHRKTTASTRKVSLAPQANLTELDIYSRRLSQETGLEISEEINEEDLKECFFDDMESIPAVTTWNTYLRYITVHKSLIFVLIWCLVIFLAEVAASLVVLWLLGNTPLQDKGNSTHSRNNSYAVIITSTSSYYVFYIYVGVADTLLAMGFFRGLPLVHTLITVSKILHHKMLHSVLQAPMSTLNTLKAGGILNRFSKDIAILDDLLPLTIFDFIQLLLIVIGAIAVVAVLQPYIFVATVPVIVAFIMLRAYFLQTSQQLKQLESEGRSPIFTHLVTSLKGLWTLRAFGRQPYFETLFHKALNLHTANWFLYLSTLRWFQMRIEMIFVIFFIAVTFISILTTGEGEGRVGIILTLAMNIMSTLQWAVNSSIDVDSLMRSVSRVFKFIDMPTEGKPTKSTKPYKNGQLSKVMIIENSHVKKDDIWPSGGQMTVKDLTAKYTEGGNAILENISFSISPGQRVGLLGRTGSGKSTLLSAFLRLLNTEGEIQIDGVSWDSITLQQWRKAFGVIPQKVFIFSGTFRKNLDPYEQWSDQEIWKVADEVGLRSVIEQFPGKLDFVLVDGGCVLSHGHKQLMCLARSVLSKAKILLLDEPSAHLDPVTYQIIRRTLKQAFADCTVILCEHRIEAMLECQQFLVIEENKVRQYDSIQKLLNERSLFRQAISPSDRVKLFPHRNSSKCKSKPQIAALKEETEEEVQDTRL

On to `CCc1ccc(S(=O)(=O)N2CCC(N(c3cccc(C)n3)S(=O)(=O)c3ccccc3)CC2)cc1` [Example 186], for which the EC50 (as a rule, the concentration that produces a half-maximal response) is < 10 µM and the Emax – broadly, the maximal effect, on the per cent scale that the assay sets – fell in the range of 10 to 30%.

Turning to `COc1ccc(S(=O)(=O)N2CCC(N(c3cccc(C)n3)S(=O)(=O)c3ccccc3)CC2)cc1Cl` [Example 187], the EC50 was < 10 µM and the Emax lay within 10 to 30%.

`Cc1cccc(N(C2CCN(S(=O)(=O)c3ccc4c(c3)OC(F)(F)O4)CC2)S(=O)(=O)c2ccccc2)n1` [Example 188]: the EC50 is < 10 µM and the Emax fell in the range of 10 to 30%.

`CCc1ccc(S(=O)(=O)N2CCC(N(c3cccc(C)n3)S(=O)(=O)c3ccccc3Cl)CC2)cc1` [Example 189]: the EC50 is < 10 µM and the Emax was in the range of 30 to 80%.

As for `COc1ccc(S(=O)(=O)N2CCC(N(c3cccc(C)n3)S(=O)(=O)c3ccccc3Cl)CC2)cc1Cl` [Example 190], the EC50 was < 10 µM and the Emax fell in the range of 10 to 30%.

Take `Cc1cccc(N(C2CCN(S(=O)(=O)c3ccc4c(c3)OC(F)(F)O4)CC2)S(=O)(=O)c2ccccc2Cl)n1` [Example 191]: the 50% effective concentration (EC50) was in the range of 10 to 20 µM and the Emax lay within 10 to 30%.

As to `CCc1ccc(S(=O)(=O)N2CCC(N(c3cccc(C)n3)S(=O)(=O)c3c(C)cc(C)cc3C)CC2)cc1` [Example 192], the EC50 is < 10 µM and the Emax was 30 to 80%.

`COc1ccc(S(=O)(=O)N2CCC(N(c3cccc(C)n3)S(=O)(=O)c3c(C)cc(C)cc3C)CC2)cc1Cl` [Example 193]: the EC50 was < 10 µM and the Emax was in the range of 30 to 80%.

For the compound `Cc1cc(C)c(S(=O)(=O)N(c2cccc(C)n2)C2CCN(S(=O)(=O)c3ccc4c(c3)OC(F)(F)O4)CC2)c(C)c1` [Example 194], the EC50 was < 10 µM and the Emax was in the range of 30 to 80%.

Regarding `CCc1ccc(S(=O)(=O)N2CCC(N(C(=S)c3ccccc3)c3ccccn3)CC2)cc1` [Example 195], the EC50 is < 10 µM and the Emax lay within 30 to 80%.

In the case of `CCc1ccc(S(=O)(=O)N2CCC(N(C(=O)c3ccccc3Cl)c3ccccn3)CC2)cc1` [Example 196], the EC50 lay within 10 to 20 µM and the Emax was in the range of 30 to 80%.

With `O=C(c1ccccc1Cl)N(c1ccccn1)C1CCN(S(=O)(=O)c2ccc3c(c2)OCO3)CC1` [Example 197], the EC50 was < 10 µM and the maximum response (Emax) fell in the range of 10 to 30%.

As for `COc1ccc(S(=O)(=O)N2CCC(N(C(=O)c3ccccc3Cl)c3ccccn3)CC2)cc1Cl` [Example 198], the concentration giving a half-maximal response (EC50) was < 10 µM and the Emax fell in the range of 10 to 30%.

Regarding `CCc1ccc(S(=O)(=O)N2CCC(N(C(=O)c3ccncc3Cl)c3ccccn3)CC2)cc1` [Example 199], the EC50 was < 10 µM and the Emax was in the range of 10 to 30%.

`COc1ccc(S(=O)(=O)N2CCC(N(C(=O)c3ccccc3Cl)c3cccc(C)n3)CC2)cc1F` [Example 200]: the EC50 is < 10 µM and the Emax was 10 to 30%.

Turning to `CCc1ccc(S(=O)(=O)N2CCC(N(C(=O)c3ccccc3Cl)c3cccc(C)n3)CC2)cc1` [Example 201], the EC50 was < 10 µM and the maximum response (Emax) was in the range of 30 to 80%.

As to `Cc1cccc(N(C(=O)c2ccccc2Cl)C2CCN(S(=O)(=O)c3ccc4c(c3)OCO4)CC2)n1` [Example 202], the concentration for a half-maximal effect (EC50) is < 10 µM and the Emax was in the range of 10 to 30%.

In the case of `COc1ccc(S(=O)(=O)N2CCC(N(C(=O)c3ccccc3Cl)c3ccccn3)CC2)cc1F` [Example 203], the EC50 is < 10 µM and the Emax came out at 1%.

For `O=C(c1ccccc1)N(c1ccccn1)C1CCN(S(=O)(=O)c2ccc3c(c2)OC(F)(F)O3)CC1` [Example 204], the EC50 was < 10 µM and the Emax lay in the range of 10 to 30%.

With `Cc1cccc(N(C(=O)c2ccccc2)C2CCN(S(=O)(=O)c3ccc4c(c3)OC(F)(F)O4)CC2)n1` [Example 205], the EC50 was < 10 µM and the Emax lay within 10 to 30%.

Turning to `COc1ccc(S(=O)(=O)N2CCC(N(C(=O)c3ccccc3Cl)c3cccc(C)n3)CC2)cc1Cl` [Example 206], the half-maximal effective concentration (EC50) fell in the range of 10 to 20 µM and the Emax lay within 10 to 30%.

As for `CCc1ccc(N(C(=O)c2ccccc2Cl)C2CCN(S(=O)(=O)c3ccc(CC)cc3)CC2)cc1` [Example 208], the concentration giving a half-maximal response (EC50) is 10 to 20 µM and the Emax lay within 30 to 80%.

Regarding `CCc1ccc(S(=O)(=O)N2CCC(N(C(=O)c3ccccc3Cl)c3ccc4c(c3)OC(F)(F)O4)CC2)cc1` [Example 209], the EC50 was < 10 µM and the maximal effect (Emax) lay within 30 to 80%.

Regarding `CCc1ccc(S(=O)(=O)N2CCC(N(C(=O)c3ccccc3Cl)c3ccccc3)CC2)cc1` [Example 210], the concentration giving a half-maximal response (EC50) was 10 to 20 µM and the Emax was 30 to 80%.

In the case of `CCc1ccc(S(=O)(=O)N2CCC(N(C(=S)c3ccccc3Cl)c3ccc(OC)cc3)CC2)cc1` [Example 211], the EC50 lay within 10 to 20 µM and the Emax lay in the range of 30 to 80%.

In the case of `CCc1ccc(S(=O)(=O)N2CCC(N(C(=S)c3ccccc3Cl)c3ccc4c(c3)OC(F)(F)O4)CC2)cc1` [Example 212], the EC50 fell in the range of 10 to 20 µM and the Emax is 30 to 80%.

With `CCc1ccc(S(=O)(=O)N2CCC(N(C(=S)c3ccccc3Cl)c3ccccc3)CC2)cc1` [Example 213], the EC50 fell in the range of 10 to 20 µM and the Emax lay in the range of 10 to 30%.

For `CCc1ccc(S(=O)(=O)N2CCC(N(C(=O)c3ccccc3Cl)c3ccc(Br)cc3)CC2)cc1` [Example 214], the EC50 was < 10 µM and the Emax lay in the range of 10 to 30%.

With `CCc1ccc(S(=O)(=O)N2CCC(N(C(=O)c3ccccc3Cl)c3ccc(I)cc3)CC2)cc1` [Example 216], the EC50 is < 10 µM and the Emax lay in the range of 10 to 30%.

Take `CCc1ccc(S(=O)(=O)N2CCC(N(C(=O)c3ccccc3Cl)c3cccc(Cl)c3)CC2)cc1` [Example 217]: the 50% effective concentration (EC50) was < 10 µM and the maximum response (Emax) lay within 10 to 30%.

Turning to `CCc1ccc(S(=O)(=O)N2CCC(N(c3ccc(OC)cn3)S(=O)(=O)c3ccccc3Cl)CC2)cc1` [Example 218], the EC50 is < 10 µM and the Emax was in the range of 10 to 30%.

Regarding `COc1ccc(N(C2CCN(S(=O)(=O)c3ccc4c(c3)OC(F)(F)O4)CC2)S(=O)(=O)c2ccccc2Cl)nc1` [Example 219], the EC50 is < 10 µM and the Emax is 10 to 30%.

Turning to `Cc1cccc(N(C2CCN(S(=O)(=O)c3ccc4nc(C)oc4c3)CC2)S(=O)(=O)c2ccccc2Cl)n1` [Example 220, 2-Chloro-N-(1-((2-methylbenzo[d]oxazol-6-yl)sulfonyl)piperidin-4-yl)-N-(6-methylpyridin-2-yl)benzenesulfonamide], the EC50 was < 10 µM and the Emax lay within 30 to 80%.

As to `CCc1ccc(S(=O)(=O)N2CCC(N(c3cccc(OC)n3)S(=O)(=O)c3ccccc3Cl)CC2)cc1` [Example 222, 2-Chloro-N-(1-((4-ethylphenyl)sulfonyl)piperidin-4-yl)-N-(6-methoxypyridin-2-yl)benzenesulfonamide], the EC50 is < 10 µM and the maximal response (Emax) was 10 to 30%.

Consider `Cc1ccc(N(C2CCN(S(=O)(=O)c3ccc4nc(C)oc4c3)CC2)S(=O)(=O)c2ccccc2Cl)nc1` [Example 223], for which the EC50 was in the range of 10 to 20 µM and the Emax was in the range of 10 to 30%.

In the case of `CCc1ccc(S(=O)(=O)N2CCC(N(c3ccccn3)S(=O)(=O)c3ccccc3C)CC2)cc1` [Example 225], the EC50 was < 10 µM and the Emax lay in the range of 10 to 30%.

Consider `CCc1ccc(S(=O)(=O)N2CCC(N(c3ccccn3)S(=O)(=O)c3cccc(C)c3)CC2)cc1` [Example 226], for which the EC50 was < 10 µM and the Emax lay in the range of 10 to 30%.

On to `CCc1ccc(S(=O)(=O)N2CCC(N(c3ccc(C)cn3)S(=O)(=O)c3ccccc3Cl)CC2)cc1` [Example 227], for which the EC50 is < 10 µM and the Emax lay within 10 to 30%.

As to `COc1ccc(N(C2CCN(S(=O)(=O)c3ccc4nc(C)oc4c3)CC2)S(=O)(=O)c2ccccc2Cl)nc1` [Example 228], the concentration for a half-maximal effect (EC50) was in the range of 10 to 20 µM and the Emax lay within 10 to 30%.

As for `CCc1ccc(S(=O)(=O)N2CCC(N(c3ccccn3)S(=O)(=O)c3ccc(C)cc3)CC2)cc1` [Example 229], the EC50 was < 10 µM and the Emax was 10 to 30%.

With `CCc1ccc(S(=O)(=O)N2CCC(N(c3ccc(Cl)cn3)S(=O)(=O)c3ccccc3Cl)CC2)cc1` [Example 230], the EC50 was < 10 µM and the Emax is 30 to 80%.

`CCc1ccc(S(=O)(=O)N2CCC(N(c3nccs3)S(=O)(=O)c3ccccc3Cl)CC2)cc1` [Example 231]: the EC50 is < 10 µM and the Emax lay within 30 to 80%.

Take `CCc1ccc(S(=O)(=O)N2CCC(N(c3cccc(Cl)n3)S(=O)(=O)c3ccccc3Cl)CC2)cc1` [Example 232]: the concentration giving a half-maximal response (EC50) is < 10 µM and the Emax lay in the range of 10 to 30%.

In the case of `CCc1ccc(S(=O)(=O)N2CCC(N(c3cc(Cl)ccn3)S(=O)(=O)c3ccccc3Cl)CC2)cc1` [Example 233], the EC50 is < 10 µM and the Emax lay within 30 to 80%.

In the case of `CCc1ccc(S(=O)(=O)N2CCC(N(c3ccccn3)S(=O)(=O)c3cccc(Cl)c3)CC2)cc1` [Example 234], the concentration giving a half-maximal response (EC50) is < 10 µM and the Emax was 30 to 80%.

Regarding `CCc1ccc(S(=O)(=O)N2CCC(N(c3ccccn3)S(=O)(=O)c3ccc(Cl)cc3)CC2)cc1` [Example 235], the EC50 is < 10 µM and the Emax lay within 30 to 80%.

In the case of `CCc1ccc(S(=O)(=O)N2CCC(N(c3ccc(OC)cc3)S(=O)(=O)c3ccccc3Cl)CC2)cc1` [Example 236], the EC50 was < 10 µM and the maximal response (Emax) fell in the range of 10 to 30%.

For the compound `CCc1ccc(S(=O)(=O)N2CCC(N(c3ccc(C)cc3)S(=O)(=O)c3ccccc3Cl)CC2)cc1` [Example 237], the EC50 was < 10 µM and the Emax fell in the range of 10 to 30%.

Take `CCc1ccc(S(=O)(=O)N2CCC(N(c3cccc(C)c3)S(=O)(=O)c3ccccc3Cl)CC2)cc1` [Example 238]: the EC50 is < 10 µM and the Emax fell in the range of 30 to 80%.

Turning to `CCc1ccc(S(=O)(=O)N2CCC(N(c3ccccc3OC)S(=O)(=O)c3ccccc3Cl)CC2)cc1` [Example 239], the EC50 is < 10 µM and the maximal response (Emax) was in the range of 10 to 30%.

For the compound `CCc1ccc(S(=O)(=O)N2CCC(N(c3cc(C)ccn3)S(=O)(=O)c3ccccc3Cl)CC2)cc1` [Example 240], the EC50 was < 10 µM and the maximal response (Emax) lay in the range of 10 to 30%.
